{
  "source": "patent EP2392318A1",
  "about": "(Laboratorios Liconsa, S.A., priority 2010, dated 2011)",
  "origin": "cited, not measured here",
  "data": [
    {"smiles": "CCCCc1nc(Cl)c(CO)n1Cc1ccc(-c2ccccc2-c2nn[nH]n2)cc1", "note": "[losartan, 2-butyl-4-chloro-1-[[2'-(1H-tetrazol-5-yl)[1,1'-biphenyl]-4-yl]methyl]-1H-imidazole-5-methanol]", "values": [
      {"measurement": "terminal half-life", "setting": "after being orally administered", "result": "about 2 hours"},
      {"measurement": "orally absorbed", "setting": "in the gastrointestinal tract", "result": "about 33%"}
    ]}
  ]
}
